Patent US11135214B2, “Methods for enhancing the bio availability and exposure of a voltage-gated potassium channel opener” (priority 2018, dated 2021)
Several values for one entry are separate records, joined by “and”; a condition that tells them apart may be missing. Equal values may be shown once. Read-outs that look alike come from different tables or passages of the source.

Assay: Food effect study, oral capsule, plasma PK in non-human primate
Format: in vivo, Cynomolgus monkeys
Conditions: for AUC(0-inf): read-out: AUCinfobs
Protocol: The following study was conducted to determine the effect of food when Compound A is orally administered to a non-human primate.
Three (n=3) Cynomolgus monkeys of Vietnamese origin were used in this study. At the time of initial dose administration, the monkeys weighed 4.7 to 5.1 kg and were about 4.5 years of age.
A certified primate diet (Teklad® Certified Diet 2050C) was fed during the study. For Group 1, the three monkeys were fasted overnight with food returned 4 hours post-dose. For Group 2, the same three monkeys were fasted overnight and offered food about 1 hour prior to dosing and food was returned at 4 hours post-dose. The following Table 1 gives the food consumption for Group 2:
The oral dosage units consisted of about 3 mg/kg of Compound A in a capsule. The capsules were filled the morning of the dose administration and kept at room temperature until dosing. The remaining capsules were placed into the −20° C. storage.
The capsules were placed as far back in the animal's mouth as possible using a pill gun or a modified gavage tube. Approximately 10 mL of water was administered via syringe to ensure complete delivery of the intended dose. Each animal received 1 capsule per dose. The same animals were dosed twice with a 96 hour washout period between doses.
Group 1: All animals were weighed the afternoon prior to dose administration. Animal #2 struggled with dosing. After several attempts, the animal was given a short break and finally dosed successfully.
Group 2: All animals were weighed the morning of dose administration. All animals were dosed without incident.
Whole blood (˜2.0 mL) was collected using syringe and needle from cephalic or saphenous veins and transferred into vacutainer tubes containing K2EDTA and kept on wet ice until processed for plasma. Blood samples were collected at time of dosing (0.0 hours, time zero) and at 0.5, 1, 2, 4, 8, 12, 24 and 48 hours post-dose.
The whole blood samples were placed in a K2EDTA tube and centrifuged at 3200 RPM for 10 minutes at approximately 5° C. Plasma samples were divided into 2 aliquots and each aliquot directly transferred to appropriately labeled, individual tubes containing study number, collection time point, animal ID number, and sample description. One aliquot was placed into storage at −20±5° C. until shipment for analysis. The other aliquot was retained at −20±5° C. Red blood cells were disposed.
All samples were processed per standard protocol for bioanalytical analysis.

[1] = Cynomolgus (Vietnamese origin), cynomolgus monkey, plasma, po, 3 mg/kg, Group 2 (fed), 3 mg/kg capsule, individual subjects
[2] = Cynomolgus, Vietnamese origin, cynomolgus monkey, plasma, po, 3 mg/kg, Group 1 (fasted), 3 mg/kg capsule, Mean
[3] = Group 1 (fasted), 3 mg/kg capsule, individual subjects, 3 mg/kg
[4] = Group 2 (fed), 3 mg/kg capsule, individual subjects, 3 mg/kg
[5] = cynomolgus monkey, plasma, po, 3 mg/kg, Group 2 (fed), 3 mg/kg capsule, Mean

Cc1cc(N2CCc3cc(F)ccc3C2)cc(C)c1NC(=O)CC(C)(C)C [Compound A, N-[4-(6-fluoro-3,4-dihydro-1H-isoquinolin-2-yl)-2,6-dimethylphenyl]-3,3-dimethylbutanamide]
Cmax (Cynomolgus (Vietnamese origin), cynomolgus monkey, plasma, po, 3 mg/kg, Group 2 (fed), 3 mg/kg capsule, Mean, read-out: Cmax): 65.4 ng/mL | Tmax (Cynomolgus (Vietnamese origin), cynomolgus monkey, plasma, po, 3 mg/kg, Group 2 (fed), 3 mg/kg capsule, Mean, read-out: Tmax): 8 h | AUC(0-t) [1]: 1120 ng·h/mL | AUC(0-inf) [1]: 1180 ng·h/mL | Cmax (Cynomolgus (Vietnamese origin), cynomolgus monkey, plasma, po, 3 mg/kg, Group 2 (fed), 3 mg/kg capsule, individual subjects, read-out: Cmax): 50.4 ng/mL | AUC(0-t) [2]: 1490 ng·h/mL | AUC(0-inf) [2]: 913 ng·h/mL | Cmax (Cynomolgus, Vietnamese origin, cynomolgus monkey, plasma, po, 3 mg/kg, Group 1 (fasted), 3 mg/kg capsule, Mean, read-out: Cmax): 55.7 ng/mL | Tmax (Cynomolgus, Vietnamese origin, cynomolgus monkey, plasma, po, 3 mg/kg, Group 1 (fasted), 3 mg/kg capsule, Mean, read-out: Tmax): 10.7 h | Cmax (Cynomolgus, Vietnamese origin, cynomolgus monkey, plasma, po, 3 mg/kg, Group 1 (fasted), 3 mg/kg capsule, individual subjects, read-out: Cmax): 75.1 ng/mL | Tmax (Cynomolgus, Vietnamese origin, cynomolgus monkey, plasma, po, 3 mg/kg, Group 1 (fasted), 3 mg/kg capsule, individual subjects, read-out: Tmax): 12 h | t½λz (Group 1 (fasted), 3 mg/kg capsule, Mean): 9.7 h | t½λz (Group 1 (fasted), 3 mg/kg capsule, individual subjects): 9.7 h | AUClast [3]: 1940 ng·h/mL and 1650 ng·h/mL and 869 ng·h/mL | Cmax [3]: 53.7 ng/mL and 38.4 ng/mL | t½λz (Group 2 (fed), 3 mg/kg capsule, Mean): 10.1 h | t½λz (Group 2 (fed), 3 mg/kg capsule, individual subjects): 10.1 h | AUClast [4]: 2010 ng·h/mL and 1790 ng·h/mL | Cmax [4]: 67.5 ng/mL and 78.2 ng/mL | Tmax [4]: 4 h | concentration at 0 h (cynomolgus monkey, plasma, oral, 3 mg/kg, Group 1 (fasted), 3 mg/kg, 0 h, N=3, read-out: Mean plasma concentration): 0 ng/mL | concentration at 0.5 h (cynomolgus monkey, plasma, oral, 3 mg/kg, Group 1 (fasted), 3 mg/kg, 0.5 h, N=3, read-out: Mean plasma concentration): 0 ng/mL | concentration at 1 h (cynomolgus monkey, plasma, oral, 3 mg/kg, Group 1 (fasted), 3 mg/kg, 1 h, N=3, read-out: Mean plasma concentration): 6.89 ng/mL | concentration at 2 h (cynomolgus monkey, plasma, oral, 3 mg/kg, Group 1 (fasted), 3 mg/kg, 2 h, N=3): 15.3 ng/mL | concentration at 4 h (cynomolgus monkey, plasma, oral, 3 mg/kg, Group 1 (fasted), 3 mg/kg, 4 h, N=3, read-out: Mean plasma concentration): 16.6 ng/mL | concentration at 8 h (cynomolgus monkey, plasma, oral, 3 mg/kg, Group 1 (fasted), 3 mg/kg, 8 h, N=3, read-out: Mean plasma concentration): 49.9 ng/mL | concentration at 12 h (cynomolgus monkey, plasma, oral, 3 mg/kg, Group 1 (fasted), 3 mg/kg, 12 h, N=3, read-out: Mean plasma concentration): 55.7 ng/mL | concentration at 24 h (cynomolgus monkey, plasma, oral, 3 mg/kg, Group 1 (fasted), 3 mg/kg, 24 h, N=3): 42.5 ng/mL | concentration at 48 h (cynomolgus monkey, plasma, oral, 3 mg/kg, Group 1 (fasted), 3 mg/kg, 48 h, N=3): 8.94 ng/mL | concentration at 0 h (cynomolgus monkey, plasma, oral, 3 mg/kg, Group 2 (fed), 3 mg/kg, 0 h, N=3, read-out: Mean plasma concentration): 0 ng/mL | concentration at 0.5 h (cynomolgus monkey, plasma, oral, 3 mg/kg, Group 2 (fed), 3 mg/kg, 0.5 h, N=3, read-out: Mean plasma concentration): 0.35 ng/mL | concentration at 1 h (cynomolgus monkey, plasma, oral, 3 mg/kg, Group 2 (fed), 3 mg/kg, 1 h, N=3, read-out: Mean plasma concentration): 1.25 ng/mL | concentration at 2 h (cynomolgus monkey, plasma, oral, 3 mg/kg, Group 2 (fed), 3 mg/kg, 2 h, N=3): 7.73 ng/mL | concentration at 4 h (cynomolgus monkey, plasma, oral, 3 mg/kg, Group 2 (fed), 3 mg/kg, 4 h, N=3, read-out: Mean plasma concentration): 44.3 ng/mL | concentration at 8 h (cynomolgus monkey, plasma, oral, 3 mg/kg, Group 2 (fed), 3 mg/kg, 8 h, N=3, read-out: Mean plasma concentration): 55.4 ng/mL | concentration at 12 h (cynomolgus monkey, plasma, oral, 3 mg/kg, Group 2 (fed), 3 mg/kg, 12 h, N=3, read-out: Mean plasma concentration): 52.8 ng/mL | concentration at 24 h (cynomolgus monkey, plasma, oral, 3 mg/kg, Group 2 (fed), 3 mg/kg, 24 h, N=3): 45 ng/mL | concentration at 48 h (cynomolgus monkey, plasma, oral, 3 mg/kg, Group 2 (fed), 3 mg/kg, 48 h, N=3): 11.6 ng/mL | concentration at 0 h (cynomolgus monkey, plasma, oral, 3 mg/kg, fed, 3 mg/kg capsule, plasma, 0 h, individual animals, read-out: Concentration): 0 ng/mL | concentration at 1 h (cynomolgus monkey, plasma, oral, 3 mg/kg, fed, 3 mg/kg capsule, plasma, 1 h, individual animals, read-out: Concentration): 1.05 ng/mL | concentration at 8 h (cynomolgus monkey, plasma, oral, 3 mg/kg, fed, 3 mg/kg capsule, plasma, 8 h, individual animals, read-out: Concentration): 50.4 ng/mL | concentration at 12 h (cynomolgus monkey, plasma, oral, 3 mg/kg, fed, 3 mg/kg capsule, plasma, 12 h, individual animals, read-out: Concentration): 48.8 ng/mL | AUC(0-inf) (cynomolgus monkey, plasma, po, 3 mg/kg, Group 1 (fasted), 3 mg/kg capsule, individual subjects): 913 ng·h/mL | AUC(0-t) [5]: 1640 ng·h/mL | AUC(0-inf) [5]: 1180 ng·h/mL | concentration at 0 h (cynomolgus monkey, plasma, po, 3 mg/kg, fasted, 3 mg/kg oral, plasma, 0 h, individual animals, read-out: Concentration): 0 ng/mL | concentration at 0.5 h (cynomolgus monkey, plasma, po, 3 mg/kg, fasted, 3 mg/kg oral, plasma, 0.5 h, individual animals, read-out: Concentration): 0 ng/mL | concentration at 4 h (cynomolgus monkey, plasma, po, 3 mg/kg, fasted, 3 mg/kg oral, plasma, 4 h, individual animals, read-out: Concentration): 12.6 ng/mL | concentration at 8 h (cynomolgus monkey, plasma, po, 3 mg/kg, fasted, 3 mg/kg oral, plasma, 8 h, individual animals, read-out: Concentration): 38.4 ng/mL | concentration at 12 h (cynomolgus monkey, plasma, po, 3 mg/kg, fasted, 3 mg/kg oral, plasma, 12 h, individual animals, read-out: Concentration): 38.3 ng/mL | Concentration (fasted, 3 mg/kg oral, plasma, 0 h, individual animals): 0 ng/mL | Concentration (fasted, 3 mg/kg oral, plasma, 0.5 h, individual animals): 0 ng/mL | Concentration (fasted, 3 mg/kg oral, plasma, 1 h, individual animals, 3 mg/kg): 15.6 ng/mL and 5.07 ng/mL and 0 ng/mL | Concentration (fasted, 3 mg/kg oral, plasma, 2 h, individual animals, 3 mg/kg): 6.00 ng/mL and 23.5 ng/mL and 16.4 ng/mL | Concentration (fasted, 3 mg/kg oral, plasma, 4 h, individual animals, 3 mg/kg): 19.2 ng/mL and 18.1 ng/mL | Concentration (fasted, 3 mg/kg oral, plasma, 8 h, individual animals, 3 mg/kg): 63.1 ng/mL and 48.1 ng/mL | Concentration (fasted, 3 mg/kg oral, plasma, 12 h, individual animals, 3 mg/kg): 75.1 ng/mL and 53.7 ng/mL | Concentration (fasted, 3 mg/kg oral, plasma, 24 h, individual animals, 3 mg/kg): 22.5 ng/mL and 53.2 ng/mL and 51.8 ng/mL | Concentration (fasted, 3 mg/kg oral, plasma, 48 h, individual animals, 3 mg/kg): 3.13 ng/mL and 12.5 ng/mL and 11.2 ng/mL | Concentration (fed, 3 mg/kg capsule, plasma, 0 h, individual animals): 0 ng/mL | Concentration (fed, 3 mg/kg capsule, plasma, 0.5 h, individual animals, 3 mg/kg): 1.05 ng/mL and 0 ng/mL (2×) | Concentration (fed, 3 mg/kg capsule, plasma, 1 h, individual animals, 3 mg/kg): 1.21 ng/mL and 1.48 ng/mL | Concentration (fed, 3 mg/kg capsule, plasma, 2 h, individual animals, 3 mg/kg): 11.8 ng/mL and 0 ng/mL and 11.4 ng/mL | Concentration (fed, 3 mg/kg capsule, plasma, 4 h, individual animals, 3 mg/kg): 34.8 ng/mL and 19.9 ng/mL and 78.2 ng/mL | Concentration (fed, 3 mg/kg capsule, plasma, 8 h, individual animals, 3 mg/kg): 52.2 ng/mL and 63.7 ng/mL | Concentration (fed, 3 mg/kg capsule, plasma, 12 h, individual animals, 3 mg/kg): 67.5 ng/mL and 42.2 ng/mL | Concentration (fed, 3 mg/kg capsule, plasma, 24 h, individual animals, 3 mg/kg): 24.2 ng/mL and 61.9 ng/mL and 48.8 ng/mL | Concentration (fed, 3 mg/kg capsule, plasma, 48 h, individual animals, 3 mg/kg): 4.26 ng/mL and 16.9 ng/mL and 13.5 ng/mL
